According to BigSolDB 2.1:

CC(C)(C)OC(=O)N[C@@H](CC(=O)O)Cc1cc(F)c(F)cc1F
solubility (mole fraction)
Details | in THF | in ethanol | in ethyl acetate | in methanol | in n-butanol | in n-propanol
280.15 K | 0.0933 | 0.036 | 0.0409 | 0.053 | 0.0274 | 0.0312
285.15 K | 0.105 | 0.042 | 0.0477 | 0.0582 | 0.0306 | 0.0374
290.15 K | 0.116 | 0.0483 | 0.0556 | 0.0669 | 0.0353 | 0.0449
295.15 K | 0.129 | 0.0559 | 0.0652 | 0.0751 | 0.0426 | 0.0522
300.15 K | 0.144 | 0.0659 | 0.0773 | 0.085 | 0.0514 | 0.0619
305.15 K | 0.163 | 0.0754 | 0.089 | 0.097 | 0.0619 | 0.0718
310.15 K | 0.187 | 0.0894 | 0.104 | 0.111 | 0.0735 | 0.0847
315.15 K | 0.215 | 0.103 | 0.121 | 0.129 | 0.0868 | 0.0985
320.15 K | 0.244 | 0.125 | 0.14 | 0.151 | 0.103 | 0.116
325.15 K | 0.279 | 0.147 | 0.164 | 0.178 | 0.126 | 0.139
330.15 K | 0.322 | 0.173 | 0.188 | 0.211 | 0.154 | 0.162
